Data as given in US20060052312A1, “Paclitaxel hybrid derivatives” (priority 2003, published 2006).

How the values were obtained:
[1] = Stability of PAC esters in aqueous media at pH 7.4 and 37° C.; assay type: physicochemical; conditions: read-out: T½ (apparent half-life in aqueous media) (converted)
[2] = test system: MCF7 human breast cancer cell; test: Inhibition of MCF7 human breast cancer cell growth (non-MDR cell line); assay type: cell-based; conditions: read-out: Potency (dose that inhibits MCF7 human breast cancer cell growth by 50%)
[3] = test system: MDR over non-MDR human breast cancer cell lines; test: MDR liability: growth inhibition in MDR over non-MDR human breast cancer cell lines; assay type: cell-based

- half-life [1]: 11.6 days
- IC50 [2]: 6.9 nM
SMILES: CC(=O)O[C@H]1C(=O)[C@@]2(C)[C@H]([C@H](OC(=O)c3ccccc3)[C@]3(O)C[C@H](OC(=O)[C@H](O)[C@@H](NC(=O)c4ccccc4)c4ccccc4)C(C)=C1C3(C)C)[C@]1(OC(C)=O)CO[C@@H]1C[C@@H]2O [PAC, Paclitaxel]
- MDR liability [3]: about 1000 fold
- MDR Liability (ratio of doses inhibiting growth by 50% in MDR over non-MDR human breast cancer cell lines) ([3]; MDR over non-MDR human breast cancer cell lines): 1041
